The source of these data is patent US20100041897A1, “Process for preparing a crystalline form of candesartan cilexetil” (CHEMO IBERICA, S.A., priority 2006, published 2010).

Structures are written as SMILES. “Also recorded” adds a separate entry of the source.

Data set [1] can be described thus: Accelerated stability test at 80° C., impurities determined by HPLC. Type of data set: physicochemical. To be noted: for stability in accelerated stability test (in words): 80° C. Here is the method: In order to determine the influence of Form II on the stability of candesartan cilexetil Form I, samples with different proportions of Form II were prepared and subjected to an accelerated stability test at a temperature of 80° C. for different periods of time up to 9 days. Once the time period elapsed, the samples were analyzed by HPLC for the determination of the content of impurities, according to the method described in the Examples. Samples of candesartan cilexetil Form I containing different proportions of Form II were prepared from the products obtained in Example 2 and Preparative Example 1. The samples were exposed to an accelerated stability test at a temperature of 80° C. for different time periods up to 9 days. Once the time period has elapsed, the samples were analyzed by HPLC for the determination of the content of impurities. Impurities corresponding to the following retention times: 8.3, 10.4, 12.5, 14.1 and 16.4 minutes were identified in the HPLC chromatograms. The HPLC analysis of impurities was carried out in a HPLC system with UV detector (Waters Alliance), with a L1-type column according to US Pharmacopeia nomenclature, at a temperature of 30° C., with a flow rate of 1 ml/min, an injection volume of 10 μl, and an UV detector at 210 nm. The mobile phase was constituted by a mixture of solution A (v/v) (aqueous 0.1% v/v trifluoroacetic acid buffer) and acetonitrile. During the analysis the mobile phase contained 45% of Solution A and 55% of acetonitrile, except for the period comprised from minute 15 to minute 25 wherein a mixture of 5% Solution A and 95% acetonitrile was used. The sample was prepared dissolving 0.2 mg of the sample in 1 ml of mobile phase. The sum of the impurities refers to the sum of areas recorded in the HPLC chromatogram corresponding to the degradation impurities detected at the retention times above specified.

Experiment in data set [2]: as above
The data set is classed as physicochemical. The conditions noted are these: product of crystallization assay from acetone/water 3:1 v/v, 80° C. for 5 to 9 days.

Where [3] appears, read: solid sample kept at 80° C. for 7 days.
Where [4] appears, read: solid sample kept at 80° C. for 9 days.

For the molecule `CCOc1nc2cccc(C(=O)OC(C)OC(=O)OC3CCCCC3)c2n1Cc1ccc(-c2ccccc2-c2nnn[nH]2)cc1` (centres unmarked) [Form I + 20.0% of Form II, candesartan cilexetil], the “Sum of impurities (% HPLC area)” value in data set [1] (setting [3]) was determined as 23.20 % HPLC area.

Take `CCOc1nc2cccc(C(=O)OC(C)OC(=O)OC3CCCCC3)c2n1Cc1ccc(-c2ccccc2-c2nnn[nH]2)cc1` (centres unmarked) [Form I (Example 2), 2-ethoxy-1-[[2′-(1H-tetrazol-5-yl)[1,1′-biphenyl]-4-yl]methyl]-1H-benzimidazole-7-carboxylic acid, 1-[[(cyclohexyloxy)carbonyl]oxy]ethyl ester]: in data set [1] (listed as candesartan cilexetil Form I), the “stability in accelerated stability test (in words)” value (shortened to “stability … (in words)”) is listed as “good stability; also recorded: high stability”. The “Sum of impurities (% HPLC area)” value in data set [1] (setting [3]) was 0.34 % HPLC area.

For the molecule `CCOc1nc2cccc(C(=O)OC(C)OC(=O)OC3CCCCC3)c2n1Cc1ccc(-c2ccccc2-c2nnn[nH]2)cc1` (centres unmarked) [Form I + 2.0% of Form II, candesartan cilexetil], the “Sum of impurities (% HPLC area)” value in data set [1] (setting [3]) is given as 2.88 % HPLC area.

Regarding `CCOc1nc2cccc(C(=O)OC(C)OC(=O)OC3CCCCC3)c2n1Cc1ccc(-c2ccccc2-c2nnn[nH]2)cc1` (centres unmarked) [Form I + 0.3% of Form II, candesartan cilexetil], the “Sum of impurities (% HPLC area)” value in data set [1] (setting [4]) amounted to 1.21 % HPLC area.

Consider `CCOc1nc2cccc(C(=O)OC(C)OC(=O)OC3CCCCC3)c2n1Cc1ccc(-c2ccccc2-c2nnn[nH]2)cc1` (centres unmarked) [Assay 3, candesartan cilexetil], for which the Stability entry in data set [2] (listed as 3) is reported as “Poor”.

`CCOc1nc2cccc(C(=O)OC(C)OC(=O)OC3CCCCC3)c2n1Cc1ccc(-c2ccccc2-c2nnn[nH]2)cc1` (centres unmarked) [Form I + 10.0% of Form II, candesartan cilexetil]: the “Sum of impurities (% HPLC area)” value in data set [1] (setting [3]) came to 12.78 % HPLC area.

For `CCOc1nc2cccc(C(=O)OC(C)OC(=O)OC3CCCCC3)c2n1Cc1ccc(-c2ccccc2-c2nnn[nH]2)cc1` (centres unmarked) [Form I + 0.1% of Form II, candesartan cilexetil], the “Sum of impurities (% HPLC area)” value in data set [1] (setting [4]) was found to be 0.96 % HPLC area.

As to `CCOc1nc2cccc(C(=O)OC(C)OC(=O)OC3CCCCC3)c2n1Cc1ccc(-c2ccccc2-c2nnn[nH]2)cc1` (centres unmarked) [Form I + 0.5% of Form II, candesartan cilexetil], the “Sum of impurities (% HPLC area)” value in data set [1] (setting [3]) was 1.46 % HPLC area.

For `CCOc1nc2cccc(C(=O)OC(C)OC(=O)OC3CCCCC3)c2n1Cc1ccc(-c2ccccc2-c2nnn[nH]2)cc1` (centres unmarked) [Assay 4, candesartan cilexetil], the Stability entry in data set [2] (listed as 4) is “Good”.

Regarding `CCOc1nc2cccc(C(=O)OC(C)OC(=O)OC3CCCCC3)c2n1Cc1ccc(-c2ccccc2-c2nnn[nH]2)cc1` (centres unmarked) [Comparative Example 2, candesartan cilexetil], in data set [1], the “stability … (in words)” value was “deficient stability”.

Regarding `CCOc1nc2cccc(C(=O)OC(C)OC(=O)OC3CCCCC3)c2n1Cc1ccc(-c2ccccc2-c2nnn[nH]2)cc1` (centres unmarked) [Example 1, candesartan cilexetil], in data set [2], the Stability entry is listed as “Poor”.

For the molecule `CCOc1nc2cccc(C(=O)OC(C)OC(=O)OC3CCCCC3)c2n1Cc1ccc(-c2ccccc2-c2nnn[nH]2)cc1` (centres unmarked) [Form II (Preparative Example 1), 2-ethoxy-1-[[2′-(1H-tetrazol-5-yl)[1,1′-biphenyl]-4-yl]methyl]-1H-benzimidazole-7-carboxylic acid, 1-[[(cyclohexyloxy)carbonyl]oxy]ethyl ester, reference compound], the content of impurities in data set [1] (80° C. for 5 days, calculated from the areas of the HPLC chromatogram) is recorded as 60 % (w/w). Moreover, the “stability … (in words)” value in data set [1] (listed as Form II) was “unstable; also recorded: high instability”. Moreover, the “Sum of impurities (% HPLC area)” value in data set [1] (solid sample kept at 80° C. for 5 days) was 59.98 % HPLC area.

As to `CCOc1nc2cccc(C(=O)OC(C)OC(=O)OC3CCCCC3)c2n1Cc1ccc(-c2ccccc2-c2nnn[nH]2)cc1` (centres unmarked) [Form I + 5.0% of Form II, candesartan cilexetil], the “Sum of impurities (% HPLC area)” value in data set [1] (setting [3]) came out at 6.65 % HPLC area.

`CCOc1nc2cccc(C(=O)OC(C)OC(=O)OC3CCCCC3)c2n1Cc1ccc(-c2ccccc2-c2nnn[nH]2)cc1` (centres unmarked) [Form I + 1.0% of Form II, candesartan cilexetil]: in data set [1] (setting [3]), the “Sum of impurities (% HPLC area)” value was 2.00 % HPLC area.
